Source: patent US20250042968A1, “EPHRIN LIGAND MIMETIC PEPTIDES FOR THE TREATMENT OF NEURODEGENERATIVE DISEASES” (University of Miami, priority 2022, published 2025)
“Also recorded” adds a separate entry of the source.

Key:
[1] = tested on: RhoA; test: Western blot of RhoA in mRGCs; format: cell-based, mouse; conditions: 500 nM
Description: On day 4, cells were treated with pre-clustered recombinant mouse EfnA5-His ligand [(+) Control, using anti-His_Tag antibody for 30 minutes] for 2 hours. Cells were then lysed in RIPA buffer containing protease and phosphatase inhibitor cocktails and maintained on ice. Protein was quantified using a BCA assay, and 10 μg of total protein was run on a TGX stain-free Any kD gel (BioRad) and transferred using the trans-blot turbo system (BioRad). Following transfer and blocking in 5% nonfat milk for 1 h, blots were probed with antibodies against RhoA, phosphorylated Rac1, ARHGEF15, Ephexin-1, or beta-actin as an endogenous loading control overnight at 4° C. Blots were then washed 3×5 min in PBS-T and incubated in the appropriate HRP-conjugated secondary antibody for 2 h at room temperature. Blots were imaged using chemiluminescent ECL substrate (Pierce) on a BioRad ChemiDoc MP imaging system and software.

[2] = tested on: mouse RGC growth cones; test: RGC growth cone collapse analysis; format: cell-based; conditions: 500 nM, 4 days, mouse RGC cultures
Description: One of the first signs of neuronal dysfunction is axonal growth cone collapse, and it is one of the mechanisms through which Eph-receptors exert their repulsive stimuli for axonal guidance. […] At the 48 h time point, cells were stimulated by the addition of 2 μg of pre-clustered recombinant mouse EfnA5-His (R&D Systems) for 1 hour. Following this stimulation, cells were fixed in 4% paraformaldehyde for 5 minutes, permeabilized with 0.05% Triton X-100, and blocked with 5% FBS for 1 h. Cells were then incubated in primary antibody against TUBB3 overnight at 4° C., washed, and incubated in AlexaFluor 488-conjugated secondary for 2 h at room temperature. After washing, cell cytoskeleton was counterstained with AlexaFluor 594-conjugated phalloidin for 30 min at 37° C. (ThermoFisher) and mounted with SlowFade Gold Anti-fade media with DAPI. Cells were then imaged using an EVOS FL Auto fluorescent microscope. Images were analyzed in ImageJ by a blinded investigator and a growth cone collapse was calculated manually.

[3] = target: T1, EphB2 (Mus musculus, UniProt P54763); test: Western blot of EphB2 expression in isolated mouse RGCs; format: cell-based; conditions: 1 μM, 4 days
T1 construct: endogenous in cells; host or cells: primary mouse retinal ganglion cells
T1 sequence (P54763 19-986): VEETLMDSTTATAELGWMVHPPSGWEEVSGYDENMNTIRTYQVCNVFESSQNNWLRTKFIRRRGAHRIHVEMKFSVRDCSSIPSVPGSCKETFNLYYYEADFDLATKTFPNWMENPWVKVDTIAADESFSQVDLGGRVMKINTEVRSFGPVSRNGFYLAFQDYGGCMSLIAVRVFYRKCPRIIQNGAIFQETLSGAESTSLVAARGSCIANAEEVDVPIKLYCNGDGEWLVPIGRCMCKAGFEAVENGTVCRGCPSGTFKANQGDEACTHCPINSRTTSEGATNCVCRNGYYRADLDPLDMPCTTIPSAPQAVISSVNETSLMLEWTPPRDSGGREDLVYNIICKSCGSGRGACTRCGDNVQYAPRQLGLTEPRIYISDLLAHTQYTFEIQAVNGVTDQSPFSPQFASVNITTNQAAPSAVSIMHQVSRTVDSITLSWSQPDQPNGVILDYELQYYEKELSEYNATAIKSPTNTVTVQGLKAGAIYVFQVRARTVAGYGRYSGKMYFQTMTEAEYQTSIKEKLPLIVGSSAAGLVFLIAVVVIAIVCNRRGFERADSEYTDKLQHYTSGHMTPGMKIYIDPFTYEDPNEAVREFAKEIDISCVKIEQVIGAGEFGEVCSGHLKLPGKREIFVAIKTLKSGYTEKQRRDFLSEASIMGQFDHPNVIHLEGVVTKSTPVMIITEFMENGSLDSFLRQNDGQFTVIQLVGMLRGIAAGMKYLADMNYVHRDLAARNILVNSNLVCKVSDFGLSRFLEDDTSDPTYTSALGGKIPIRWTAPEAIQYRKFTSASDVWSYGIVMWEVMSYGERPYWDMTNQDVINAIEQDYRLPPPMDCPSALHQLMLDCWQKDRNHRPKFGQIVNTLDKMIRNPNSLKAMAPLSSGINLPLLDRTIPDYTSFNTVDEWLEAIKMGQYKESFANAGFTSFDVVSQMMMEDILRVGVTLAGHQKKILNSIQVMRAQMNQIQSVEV
From the text: In order to assess the effect of xEFN peptide supplementation on Eph-receptor modulation, various in vitro assays were employed on isolated mouse RGCs. […] Similarly, xEFN_RBD1, and 3 inhibited the phosphorylation of Rac1 by pre-clustered ephirnA5 ligand stimulation. […] TUBB3 is a marker specific for neuronal microtubules and functions as a neuronal-specific marker.

FTIKFQEFSPNLWGL [xEFN_RBD3] was tested, and the “expression of the GTPase RhoA” value [1] was “downregulates”, the “number of collapsed growth cones” value [2] was “significant decrease” and the “expression of EphB2 (western blot)” value [3] was “reduced expression; also recorded: effectively decreased expression”.
